Here are results for ten compounds from patent US20260124201A1, “CYCLOPENTANE COMPOUND” (Kissei Pharmaceutical Co., Ltd., priority 2022, published 2026).

One assay concerns the target T1, human OX2R (Homo sapiens, UniProt O43614).
T1 construct: expressed in transfected cells
T1 sequence (O43614 1-444): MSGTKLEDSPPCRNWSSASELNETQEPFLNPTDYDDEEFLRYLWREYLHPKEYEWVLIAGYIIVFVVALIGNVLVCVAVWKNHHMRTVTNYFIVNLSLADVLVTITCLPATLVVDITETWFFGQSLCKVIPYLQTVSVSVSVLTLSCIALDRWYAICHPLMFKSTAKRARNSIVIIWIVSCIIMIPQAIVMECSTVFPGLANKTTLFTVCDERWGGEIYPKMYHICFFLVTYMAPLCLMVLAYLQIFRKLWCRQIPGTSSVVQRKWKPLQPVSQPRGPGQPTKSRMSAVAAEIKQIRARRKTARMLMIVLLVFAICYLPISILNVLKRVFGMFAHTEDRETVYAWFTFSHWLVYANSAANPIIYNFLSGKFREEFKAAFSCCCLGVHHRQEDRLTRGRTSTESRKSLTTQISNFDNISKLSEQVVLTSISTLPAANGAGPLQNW
The assay can be described thus: Measurement of OX2R agonist activity (intracellular calcium concentration change, Fluo4-AM, FDSS 7000). The assay is classed as cell-based. The conditions noted are these: compound concentration 10 μM; human OX2R-expressing CHO-K1 cells; 1 μM human orexin A peptide = 100%, medium alone = 0%. The method, boiled down: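 Stable human OX2R-expressing CHO-K1 cells, loaded 45 min at 37 °C with 1.14 μM Fluo4-AM plus probenecid in HEPES-buffered HBSS pH 7.4; calcium fluorescence read by FDSS. Activation at 10 μM compound expressed relative to 1 μM human orexin A (100%) and medium alone (0%).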
Turning to `CON(C)C(=O)[C@@]1(Cc2cccc(-c3ncc(F)cn3)c2)C[C@H](F)[C@H](NS(=O)(=O)C2CC2)C1` [Example 60, (1R,3R,4S)-3-(Cyclopropanesulfonamido)-4-fluoro-1-(3-(5-fluoropyrimidin-2-yl)benzyl)-N-methoxy-N-methylcyclopentane-1-carboxamide], the “Act. (%): activation rate of test substance” value (shortened to “Act. (%): activation rate”) amounted to 94%.
On the same count and under the same terms, as for `CCS(=O)(=O)N[C@@H]1C[C@@](Cc2cc(-c3ncccn3)ccc2F)(C(=O)N(C)OC)C[C@@H]1F` [Example 61, (1R,3R,4S)-3-(Ethylsulfonamido)-4-fluoro-1-(2-fluoro-5-(pyrimidin-2-yl)benzyl)-N-methoxy-N-methylcyclopentane-1-carboxamide], the figure is 105%.
Consider `CON(C)C(=O)[C@@]1(Cc2ccc(Cl)c(-c3ncc(F)cn3)c2)C[C@H](F)[C@H](NS(C)(=O)=O)C1` [Example 62, (1R,3S,4R)-1-(4-Chloro-3-(5-fluoropyrimidin-2-yl)benzyl)-3-fluoro-N-methoxy-N-methyl-4-(methylsulfonamido)cyclopentane-1-carboxamide], for which the “Act. (%): activation rate” value is recorded as 96%.
Same read-out and setting: to `CCS(=O)(=O)N[C@@H]1C[C@@](Cc2ccc(Cl)c(-c3ncc(F)cn3)c2)(C(=O)N(C)OC)C[C@@H]1F` [Example 63, (1R,3R,4S)-1-(4-Chloro-3-(5-fluoropyrimidin-2-yl)benzyl)-3-(ethylsulfonamido)-4-fluoro-N-methoxy-N-methylcyclopentane-1-carboxamide] belongs 96%; to `CON(C)C(=O)[C@@]1(Cc2ccc(F)c(-c3ncc(F)cn3)c2)C[C@@H](F)[C@H](NS(C)(=O)=O)C1` [Example 64, (1R,3R,4R)-3-Fluoro-1-(4-fluoro-3-(5-fluoropyrimidin-2-yl)benzyl)-N-methoxy-N-methyl-4-(methylsulfonamido)cyclopentane-1-carboxamide], 101%; to `CON(C)C(=O)[C@]1(Cc2cccc(-c3ncccn3)c2)C[C@@H](NS(C)(=O)=O)C(F)(F)C1` [Example 65, (1R,4R)-3,3-Difluoro-N-methoxy-N-methyl-4-(methylsulfonamido)-1-(3-(pyrimidin-2-yl)benzyl)cyclopentane-1-carboxamide], 86%.
For `CON(C)C(=O)[C@]1(Cc2cccc(-c3ncc(F)cn3)c2)C[C@@H](NS(C)(=O)=O)C(F)(F)C1` [Example 66, (1R,4R)-3,3-Difluoro-1-(3-(5-fluoropyrimidin-2-yl)benzyl)-N-methoxy-N-methyl-4-(methylsulfonamido)cyclopentane-1-carboxamide], the “Act. (%): activation rate” value was determined as 95%.
The same measure, in the same setting: to `CO[C@H]1C[C@](Cc2cccc(-c3ncc(F)cn3)c2)(C(=O)N(C)OC)C[C@H]1NS(C)(=O)=O` [Example 67, (1R,3S,4R)-1-(3-(5-Fluoropyrimidin-2-yl)benzyl)-N,3-dimethoxy-N-methyl-4-(methylsulfonamido)cyclopentane-1-carboxamide] belongs 88%; to `CO[C@@H]1C[C@](Cc2cccc(-c3ncc(F)cn3)c2)(C(=O)N(C)OC)C[C@H]1NS(C)(=O)=O` [Example 68], 91%.

A further assay relates to wild-type mice.
Test: not given
The conditions noted are these: subcutaneous administration; cited from earlier work.
Take `COC(=O)N1CCC[C@H](NS(C)(=O)=O)[C@@H]1CO[C@H]1CC[C@@H](c2ccccc2)CC1` [TAK-925]: the wake time result is reported as “prolonging of wake time”.

The test system of a further assay is NT1 patients.
Test: not given
Conditions: clinical study; cited from earlier work.
For `COC(=O)N1CCC[C@H](NS(C)(=O)=O)[C@@H]1CO[C@H]1CC[C@@H](c2ccccc2)CC1` [TAK-925], the “wakefulness and daytime sleepiness” value was “maintaining wakefulness and reducing daytime sleepiness”.
